Experimental data taken from PubChem BioAssay AID1259407 (Chemical Carcinogenesis Research Information System (CCRIS), 2018).
Calls of active or inactive are those of the source. How the calls were made is not given here.

Tested on: CCRIS mutagenicity, Ames/micronucleus/aberration tests
Experiment: CCRIS mutagenicity studies
[1] = Test System: AMES SALMONELLA TYPHIMURIUM, Strain/Indicator: TA100, Metabolic Activation: NONE, Method: STANDARD PLATE
[2] = Test System: AMES SALMONELLA TYPHIMURIUM, Strain/Indicator: TA1535, Metabolic Activation: NONE, Method: STANDARD PLATE
[3] = Test System: AMES SALMONELLA TYPHIMURIUM, Strain/Indicator: TA98, Metabolic Activation: NONE, Method: STANDARD PLATE

Measured: mutagenic call

O=CC1CO1 (stereo unspecified)
active: [1] active; positive | [2] active; positive | Test System: E. COLI, Strain/Indicator: WP2 UVRA, Metabolic Activation: HAMSTER, LIVER, S-9, AROCLOR 1254, Method: PREINCUBATION active; positive | Test System: E. COLI, Strain/Indicator: WP2 UVRA, Metabolic Activation: HAMSTER, LIVER, S-9, AROCLOR 1254, Method: STANDARD PLATE active; positive | Test System: E. COLI, Strain/Indicator: WP2 UVRA, Metabolic Activation: HAMSTER, LIVER, S-9, Method: PREINCUBATION active; positive | Test System: E. COLI, Strain/Indicator: WP2 UVRA, Metabolic Activation: HAMSTER, LIVER, S-9, Method: STANDARD PLATE active; positive | Test System: E. COLI, Strain/Indicator: WP2 UVRA, Metabolic Activation: MOUSE, LIVER, S-9, AROCLOR 1254, Method: PREINCUBATION active; positive | Test System: E. COLI, Strain/Indicator: WP2 UVRA, Metabolic Activation: MOUSE, LIVER, S-9, AROCLOR 1254, Method: STANDARD PLATE active; positive | Test System: E. COLI, Strain/Indicator: WP2 UVRA, Metabolic Activation: MOUSE, LIVER, S-9, Method: PREINCUBATION active; positive | Test System: E. COLI, Strain/Indicator: WP2 UVRA, Metabolic Activation: MOUSE, LIVER, S-9, Method: STANDARD PLATE active; positive | Test System: E. COLI, Strain/Indicator: WP2 UVRA, Metabolic Activation: NONE, Method: PREINCUBATION active; positive | Test System: E. COLI, Strain/Indicator: WP2 UVRA, Metabolic Activation: NONE, Method: STANDARD PLATE active; positive | Test System: E. COLI, Strain/Indicator: WP2 UVRA, Metabolic Activation: RAT, LIVER, S-9, AROCLOR 1254, Method: PREINCUBATION active; positive | Test System: E. COLI, Strain/Indicator: WP2 UVRA, Metabolic Activation: RAT, LIVER, S-9, AROCLOR 1254, Method: STANDARD PLATE active; positive | Test System: E. COLI, Strain/Indicator: WP2 UVRA, Metabolic Activation: RAT, LIVER, S-9, Method: PREINCUBATION active; positive | Test System: E. COLI, Strain/Indicator: WP2 UVRA, Metabolic Activation: RAT, LIVER, S-9, Method: STANDARD PLATE active; positive | Test System: UDS HUMAN FIBROBLASTS, Strain/Indicator: THY INCORP (NON-S-PHASE), Metabolic Activation: NONE, Method: LIQUID SCINTILLATION COUNTING active; positive

Clc1ccc(CC2CO2)cc1 (stereo unspecified)
active: Test System: AMES SALMONELLA TYPHIMURIUM, Strain/Indicator: TA100, Metabolic Activation: NONE, Method: PREINCUBATION active; positive | [1] active; positive | Test System: AMES SALMONELLA TYPHIMURIUM, Strain/Indicator: TA1535, Metabolic Activation: NONE, Method: PREINCUBATION active; positive | [2] active; positive

Nc1nc(-c2cccnc2)cs1
inactive: Test System: AMES SALMONELLA TYPHIMURIUM, Strain/Indicator: TA1538, Metabolic Activation: RAT, LIVER, S-9, AROCLOR 1254, Method: STANDARD PLATE inactive; negative

Nc1ccc(-c2ccc(N)cc2[N+](=O)[O-])cc1
active: Test System: AMES SALMONELLA TYPHIMURIUM, Strain/Indicator: TA98(1,8-DNP6), Metabolic Activation: NONE, Method: STANDARD PLATE active; positive | Test System: AMES SALMONELLA TYPHIMURIUM, Strain/Indicator: TA98(1,8-DNP6), Metabolic Activation: S-9, Method: STANDARD PLATE active; positive | [3] active; positive | Test System: AMES SALMONELLA TYPHIMURIUM, Strain/Indicator: TA98, Metabolic Activation: S-9, Method: STANDARD PLATE active; positive | Test System: AMES SALMONELLA TYPHIMURIUM, Strain/Indicator: TA100, Metabolic Activation: S-9, Method: STANDARD PLATE active; positive
inactive: [1] inactive; negative

CN(C)c1ccc(C(=C2C=CC(=[N+](C)C)C=C2)c2ccccc2)cc1
active: Test System: AMES SALMONELLA TYPHIMURIUM, Strain/Indicator: TA98, Metabolic Activation: RAT, LIVER, S-9, Method: STANDARD PLATE active; positive | Test System: AMES SALMONELLA TYPHIMURIUM, Strain/Indicator: TA100, Method: PREINCUBATION active; positive
inactive: End Point: IN VIVO MICRONUCLEUS, Test System: PERIPHERAL BLOOD ERYTHROCYTES, Species: MOUSE, Strain/Sex: BIG BLUE B6C3F1/FEMALE, Route: DIET inactive; negative | Test System: AMES SALMONELLA TYPHIMURIUM, Strain/Indicator: TA97A, Metabolic Activation: NONE, Method: STANDARD PLATE inactive; negative | Test System: AMES SALMONELLA TYPHIMURIUM, Strain/Indicator: TA97A, Metabolic Activation: RAT LIVER S-9, 3-METHYLCHOLANTHRENE, PHENOBARBITAL, Method: STANDARD PLATE inactive; negative | [3] inactive; negative | Test System: AMES SALMONELLA TYPHIMURIUM, Strain/Indicator: TA98, Metabolic Activation: RAT LIVER S-9, 3-METHYLCHOLANTHRENE, PHENOBARBITAL, Method: STANDARD PLATE inactive; negative | [1] inactive; negative | Test System: AMES SALMONELLA TYPHIMURIUM, Strain/Indicator: TA100, Metabolic Activation: RAT LIVER S-9, 3-METHYLCHOLANTHRENE, PHENOBARBITAL, Method: STANDARD PLATE inactive; negative | Test System: AMES SALMONELLA TYPHIMURIUM, Strain/Indicator: TA100, Metabolic Activation: RAT, LIVER, S-9, Method: STANDARD PLATE inactive; negative | Test System: AMES SALMONELLA TYPHIMURIUM, Strain/Indicator: TA102, Metabolic Activation: NONE, Method: STANDARD PLATE inactive; negative | Test System: AMES SALMONELLA TYPHIMURIUM, Strain/Indicator: TA102, Metabolic Activation: RAT LIVER S-9, 3-METHYLCHOLANTHRENE, PHENOBARBITAL, Method: STANDARD PLATE inactive; negative | [2] inactive; negative | Test System: AMES SALMONELLA TYPHIMURIUM, Strain/Indicator: TA1535, Metabolic Activation: RAT, LIVER, S-9, Method: STANDARD PLATE inactive; negative | Test System: AMES SALMONELLA TYPHIMURIUM, Strain/Indicator: TA1537, Metabolic Activation: NONE, Method: STANDARD PLATE inactive; negative | Test System: AMES SALMONELLA TYPHIMURIUM, Strain/Indicator: TA1537, Metabolic Activation: RAT, LIVER, S-9, Method: STANDARD PLATE inactive; negative | Test System: CHO/HGPRT, Strain/Indicator: CHO-K1, Metabolic Activation: NONE, Method: STANDARD PLATE inactive; negative | Test System: CHO/HGPRT, Strain/Indicator: CHO-K1, Metabolic Activation: RAT LIVER S-9, 3-METHYLCHOLANTHRENE, PHENOBARBITAL, Method: STANDARD PLATE inactive; negative

Cn1c2ccccc2c(=O)c2c(O)cc3c(c21)CC(C(C)(O)CCl)O3 (stereo unspecified)
active: [3] active; positive | Test System: AMES SALMONELLA TYPHIMURIUM, Strain/Indicator: TA98, Metabolic Activation: RAT, LIVER, S-9, PHENOBARBITAL, Method: STANDARD PLATE active; positive | [1] active; positive | Test System: AMES SALMONELLA TYPHIMURIUM, Strain/Indicator: TA100, Metabolic Activation: RAT, LIVER, S-9, PHENOBARBITAL, Method: STANDARD PLATE active; positive | Test System: AMES SALMONELLA TYPHIMURIUM, Strain/Indicator: TA1538, Metabolic Activation: NONE, Method: STANDARD PLATE active; positive | Test System: AMES SALMONELLA TYPHIMURIUM, Strain/Indicator: TA1538, Metabolic Activation: RAT, LIVER, S-9, PHENOBARBITAL, Method: STANDARD PLATE active; positive | Test System: AMES SALMONELLA TYPHIMURIUM, Strain/Indicator: TA1978, Metabolic Activation: NONE, Method: STANDARD PLATE active; positive
inactive: [2] inactive; negative | Test System: AMES SALMONELLA TYPHIMURIUM, Strain/Indicator: TA1535, Metabolic Activation: RAT, LIVER, S-9, PHENOBARBITAL, Method: STANDARD PLATE inactive; negative | Test System: AMES SALMONELLA TYPHIMURIUM, Strain/Indicator: TA1978, Metabolic Activation: RAT, LIVER, S-9, PHENOBARBITAL, Method: STANDARD PLATE inactive; negative
